The structures appear in SMILES notation.

This data set is described as follows: TNS dye-binding assay for dissociation constant (pKa). Format: physicochemical. An excerpt: Ionizable lipids have two main roles: binding to nucleic acids and allowing the release of the nucleic acid molecules in cells.

`CCCCC/C=C\C/C=C\CCCCCCC(O)CNCCN(C)CCN(CC(O)CCCCCC/C=C\C/C=C\CCCCC)CC(O)CCCCCC/C=C\C/C=C\CCCCC` (stereo not shown) [II-37] had a pKa of 6.81.

The values above are taken from patent US12508225B2, “Lipid compound and use thereof in delivery of nucleic acid” (BEIJING TRICISIONBIO THERAPEUTICS INC., priority 2021, dated 2025).
